Calls of active or inactive are those of the source.
Assays:
[1] = biological target: T1, High affinity choline transporter 1 (Homo sapiens, UniProt Q9GZV3); assay: CHT inhibitors, dose response, cell-based, 5-point CRC, membrane potential dye (AID 504840); format: functional
T1 sequence (Q9GZV3 whole entry): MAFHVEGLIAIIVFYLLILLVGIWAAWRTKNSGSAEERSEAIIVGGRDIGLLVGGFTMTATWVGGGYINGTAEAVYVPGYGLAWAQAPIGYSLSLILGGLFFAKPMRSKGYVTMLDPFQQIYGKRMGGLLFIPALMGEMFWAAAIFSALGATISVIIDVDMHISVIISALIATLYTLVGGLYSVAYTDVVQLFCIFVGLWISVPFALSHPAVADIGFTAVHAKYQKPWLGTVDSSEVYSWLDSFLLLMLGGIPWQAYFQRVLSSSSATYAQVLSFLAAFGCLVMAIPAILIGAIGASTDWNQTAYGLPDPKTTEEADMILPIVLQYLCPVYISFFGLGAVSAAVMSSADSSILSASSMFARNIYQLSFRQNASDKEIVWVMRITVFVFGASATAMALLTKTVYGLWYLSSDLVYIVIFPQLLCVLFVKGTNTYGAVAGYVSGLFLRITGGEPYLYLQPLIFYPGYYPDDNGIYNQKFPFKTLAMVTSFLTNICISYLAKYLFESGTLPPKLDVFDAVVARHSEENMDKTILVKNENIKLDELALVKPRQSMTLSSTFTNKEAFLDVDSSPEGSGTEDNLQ

Genome polyprotein = Genome polyprotein (dengue virus type 2, UniProt P29990); assay: Dengue-2 NS5 methyltransferase inhibitors, primary screen, biochemical, confirmation dose response (AID 588689); format: functional
Leucine aminopeptidase = biological target: T2, Leucine aminopeptidase (Plasmodium falciparum 3D7, UniProt Q8IL11); assay: P. falciparum M17LAP inhibitors, primary screen, biochemical, fluorogenic H-Leu-NHMec substrate, 1536-well (AID 1619); format: functional
T2 sequence (Q8IL11 whole entry): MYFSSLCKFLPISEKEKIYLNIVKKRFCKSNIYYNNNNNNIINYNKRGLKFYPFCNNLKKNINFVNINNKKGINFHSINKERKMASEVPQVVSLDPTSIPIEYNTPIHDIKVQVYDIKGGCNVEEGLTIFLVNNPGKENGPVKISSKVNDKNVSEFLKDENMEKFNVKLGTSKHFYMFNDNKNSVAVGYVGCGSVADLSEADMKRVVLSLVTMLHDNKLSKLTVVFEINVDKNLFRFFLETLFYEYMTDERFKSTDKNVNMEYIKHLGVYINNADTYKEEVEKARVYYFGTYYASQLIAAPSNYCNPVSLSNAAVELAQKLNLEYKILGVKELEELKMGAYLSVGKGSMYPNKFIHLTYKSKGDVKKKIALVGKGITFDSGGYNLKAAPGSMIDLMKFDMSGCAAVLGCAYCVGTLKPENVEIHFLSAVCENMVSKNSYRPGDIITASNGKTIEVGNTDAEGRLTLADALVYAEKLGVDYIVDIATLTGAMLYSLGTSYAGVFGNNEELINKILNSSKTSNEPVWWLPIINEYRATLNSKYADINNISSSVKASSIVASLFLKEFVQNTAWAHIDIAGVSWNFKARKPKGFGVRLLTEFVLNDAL

Aminopeptidase N = biological target: T3, Aminopeptidase N (Plasmodium falciparum FcB1/Columbia, UniProt O96935); assay: P. falciparum M1AAP inhibitors, biochemical, fluorogenic H-Leu-NHMec substrate, 1536-well (AID 1445); design: species or system Plasmodium falciparum 3D7, 3D7
T3 sequence (O96935 whole entry): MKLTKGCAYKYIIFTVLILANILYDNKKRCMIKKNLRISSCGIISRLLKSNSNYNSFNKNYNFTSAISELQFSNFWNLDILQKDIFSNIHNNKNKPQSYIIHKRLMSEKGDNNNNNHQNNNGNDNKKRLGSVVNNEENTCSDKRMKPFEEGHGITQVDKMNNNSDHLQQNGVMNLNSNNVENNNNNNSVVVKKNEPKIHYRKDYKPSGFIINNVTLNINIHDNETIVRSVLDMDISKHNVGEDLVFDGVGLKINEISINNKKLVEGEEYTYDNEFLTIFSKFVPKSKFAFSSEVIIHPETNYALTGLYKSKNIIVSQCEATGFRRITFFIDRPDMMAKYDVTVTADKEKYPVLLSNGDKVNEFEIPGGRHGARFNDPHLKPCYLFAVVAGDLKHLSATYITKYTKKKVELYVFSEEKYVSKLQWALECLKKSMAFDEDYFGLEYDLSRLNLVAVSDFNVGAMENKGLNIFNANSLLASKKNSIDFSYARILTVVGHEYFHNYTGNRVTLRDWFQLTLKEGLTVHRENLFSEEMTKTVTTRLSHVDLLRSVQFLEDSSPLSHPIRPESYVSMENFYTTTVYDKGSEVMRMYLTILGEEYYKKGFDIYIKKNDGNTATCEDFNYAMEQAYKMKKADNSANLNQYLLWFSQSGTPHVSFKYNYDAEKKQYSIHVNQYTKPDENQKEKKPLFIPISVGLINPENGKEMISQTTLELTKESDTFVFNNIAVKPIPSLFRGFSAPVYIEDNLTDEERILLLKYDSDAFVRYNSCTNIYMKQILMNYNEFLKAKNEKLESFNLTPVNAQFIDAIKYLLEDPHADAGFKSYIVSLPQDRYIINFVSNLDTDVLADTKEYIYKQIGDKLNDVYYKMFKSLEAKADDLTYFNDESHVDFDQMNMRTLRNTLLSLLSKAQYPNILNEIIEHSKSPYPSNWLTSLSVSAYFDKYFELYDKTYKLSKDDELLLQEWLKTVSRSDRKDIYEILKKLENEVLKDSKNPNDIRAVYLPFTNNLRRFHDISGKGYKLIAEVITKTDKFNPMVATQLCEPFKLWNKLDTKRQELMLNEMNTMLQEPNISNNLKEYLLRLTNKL

[2] = biological target: Induced myeloid leukemia cell differentiation protein Mcl-1 (Homo sapiens, UniProt Q07820); format: functional
[3] = biological target: T4, Replicative DNA helicase DnaB (Mycobacterium tuberculosis, UniProt P9WMR3); assay: DnaB intein splicing inhibitors, dose response, biochemical, cell-free fluorescence (AID 449749); format: functional
T4 sequence (P9WMR3 whole entry): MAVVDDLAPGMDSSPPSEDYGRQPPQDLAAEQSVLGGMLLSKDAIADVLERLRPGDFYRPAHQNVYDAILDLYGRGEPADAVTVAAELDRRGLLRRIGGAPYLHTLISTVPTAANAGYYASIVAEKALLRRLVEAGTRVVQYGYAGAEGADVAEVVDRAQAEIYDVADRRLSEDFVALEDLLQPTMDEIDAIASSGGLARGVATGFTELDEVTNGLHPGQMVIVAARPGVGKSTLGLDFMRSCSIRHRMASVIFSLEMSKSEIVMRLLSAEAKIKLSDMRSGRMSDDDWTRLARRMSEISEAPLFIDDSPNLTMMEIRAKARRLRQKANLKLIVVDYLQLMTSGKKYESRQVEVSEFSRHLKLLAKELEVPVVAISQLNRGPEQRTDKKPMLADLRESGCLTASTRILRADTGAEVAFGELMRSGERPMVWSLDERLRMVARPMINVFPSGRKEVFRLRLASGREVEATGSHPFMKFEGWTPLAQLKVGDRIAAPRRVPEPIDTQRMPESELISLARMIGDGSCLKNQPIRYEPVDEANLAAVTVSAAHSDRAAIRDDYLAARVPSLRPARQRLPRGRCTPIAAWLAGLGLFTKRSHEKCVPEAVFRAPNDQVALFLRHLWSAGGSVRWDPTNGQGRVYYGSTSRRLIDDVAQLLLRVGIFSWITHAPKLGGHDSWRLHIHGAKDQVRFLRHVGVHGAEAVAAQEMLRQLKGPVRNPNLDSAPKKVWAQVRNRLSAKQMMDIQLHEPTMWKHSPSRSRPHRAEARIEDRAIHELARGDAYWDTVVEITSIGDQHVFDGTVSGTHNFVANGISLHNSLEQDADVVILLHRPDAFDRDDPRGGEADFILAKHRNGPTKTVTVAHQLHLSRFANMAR

Protein RecA = biological target: T5, Protein RecA (Mycobacterium tuberculosis, UniProt P9WHJ3); assay: Fluorescence Cell-Free Homogeneous Dose Retest to Identify Inhibitors of RecA-Intein Splicing Activity. [Related pubchem assays (depositor defined):AID2097, AID2223, AID489010, AID492950]; format: functional
T5 sequence (P9WHJ3 whole entry): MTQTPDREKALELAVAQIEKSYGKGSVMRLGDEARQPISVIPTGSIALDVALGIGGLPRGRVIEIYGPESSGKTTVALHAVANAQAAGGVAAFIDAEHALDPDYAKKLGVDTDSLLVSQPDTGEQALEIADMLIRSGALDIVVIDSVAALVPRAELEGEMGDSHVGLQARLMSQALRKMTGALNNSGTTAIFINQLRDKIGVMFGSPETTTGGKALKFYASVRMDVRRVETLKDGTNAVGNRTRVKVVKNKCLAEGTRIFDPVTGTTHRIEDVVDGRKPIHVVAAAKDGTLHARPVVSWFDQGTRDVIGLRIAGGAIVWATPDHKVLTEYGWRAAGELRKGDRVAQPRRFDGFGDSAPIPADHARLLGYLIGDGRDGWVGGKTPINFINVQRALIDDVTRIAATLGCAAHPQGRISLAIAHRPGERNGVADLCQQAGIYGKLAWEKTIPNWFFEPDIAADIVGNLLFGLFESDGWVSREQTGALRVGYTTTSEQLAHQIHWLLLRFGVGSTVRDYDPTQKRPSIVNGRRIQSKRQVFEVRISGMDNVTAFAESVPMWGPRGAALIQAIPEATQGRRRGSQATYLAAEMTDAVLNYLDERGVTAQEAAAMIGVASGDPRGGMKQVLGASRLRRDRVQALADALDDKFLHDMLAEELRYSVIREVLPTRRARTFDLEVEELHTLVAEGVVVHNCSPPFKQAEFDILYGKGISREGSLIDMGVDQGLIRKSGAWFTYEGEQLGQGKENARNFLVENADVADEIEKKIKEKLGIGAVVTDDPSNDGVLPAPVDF

H4 = assay: Luminescence Cell-Based Dose Response HTS to Identify Activators of 5'UTR Stem-Loop Driven Prion Protein mRNA Translation in H4 Neuroglioblastoma Cells. [Related pubchem assays: 1829 (Project Summary), 1814 (Primary HTS)]; format: functional; settings: Homo sapiens
[4] = Luminescence Cell-Based Dose Response HTS to Identify Activators of Luciferase Translation or Activity in H4 […] Cells. [Related pubchem assays: 1829 (Project Summary), 1814 (Primary HTS)]; format: functional
[5] = Luminescence Cell-Based Dose Confirmation HTS to Identify Activators of 5'UTR Stem-Loop Driven Alpha-Synuclein mRNA Translation in H4 Neuroglioblastoma Cells. [Related pubchem assays: 1829 (Project Summary), 1814 (Primary HTS)]; format: functional
[6] = Luminescence Cell-Based Dose Response to Identify Activators of 5'UTR Stem-Loop Driven Prion Protein mRNA Translation in H4-C Neuroglioblastoma Cells. [Related pubchem assays: 1829 (Project Summary), 1814 (Primary HTS)]; format: functional
[7] = Luminescence Cell-Based Dose Confirmation to Identify Activators of 5'UTR Stem-Loop Driven Alpha-Synuclein mRNA Translation in H4 Neuroglioblastoma Cells. [Related pubchem assays: 1829 (Project Summary), 1814 (Primary HTS)]; format: functional
[8] = Luminescence Cell-Based Dose Response to Identify Activators of Luciferase Translation or Activity in H4-C Neuroglioblastoma Cells. [Related pubchem assays: 1829 (Project Summary), 1814 (Primary HTS)]; format: functional
[9] = A cytotoxicity screen of small molecule inhibitors of the PhoP region in Salmonella typhi identified in the primary screen. [Related pubchem assays: 1850, 1864, 1985 ]; format: functional
[10] = biological target: Peroxisome proliferator-activated receptor gamma/Nuclear receptor coactivator 2 (Homo sapiens, UniProt P37231); format: functional;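 also: agonist potency for raising coactivator recruitment to the receptor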
[11] = biological target: Peroxisome proliferator-activated receptor gamma/Nuclear receptor coactivator 1 (Homo sapiens, UniProt P37231); format: functional;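 also: agonist potency as compounds enhance coactivator SRC-1 recruitment to PPARgamma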
[12] = biological target: Peroxisome proliferator-activated receptor gamma/Nuclear receptor coactivator 3 (Homo sapiens, UniProt P37231); format: functional;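 also: agonist potency for raising coactivator recruitment to the receptor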
Cytochrome P450 2C19 = Cytochrome P450 2C19 (Homo sapiens, UniProt P33261); assay: Cytochrome panel assay with activity outcomes. Panel member name: p450-cyp2c19 Compounds with AC50 equal or less than 10 uM are considered active; format: functional; settings: read-out: AC50
Cytochrome P450 2C19, sequence (P33261 whole entry): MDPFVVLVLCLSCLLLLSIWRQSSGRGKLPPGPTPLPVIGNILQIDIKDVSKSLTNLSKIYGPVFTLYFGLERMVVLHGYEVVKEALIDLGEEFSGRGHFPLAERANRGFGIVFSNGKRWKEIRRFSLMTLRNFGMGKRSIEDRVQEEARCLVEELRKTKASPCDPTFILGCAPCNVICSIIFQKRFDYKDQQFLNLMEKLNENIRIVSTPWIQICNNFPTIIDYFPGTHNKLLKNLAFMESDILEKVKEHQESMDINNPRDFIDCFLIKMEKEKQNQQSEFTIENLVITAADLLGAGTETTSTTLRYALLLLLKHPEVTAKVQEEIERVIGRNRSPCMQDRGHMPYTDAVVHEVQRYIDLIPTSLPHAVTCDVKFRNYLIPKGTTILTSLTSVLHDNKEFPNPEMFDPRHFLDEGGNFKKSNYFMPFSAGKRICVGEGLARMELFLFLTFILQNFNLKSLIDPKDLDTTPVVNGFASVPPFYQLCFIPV

Peroxisome proliferator-activated receptor gamma/Nuclear receptor coactivator 3, sequence (P37231 whole entry): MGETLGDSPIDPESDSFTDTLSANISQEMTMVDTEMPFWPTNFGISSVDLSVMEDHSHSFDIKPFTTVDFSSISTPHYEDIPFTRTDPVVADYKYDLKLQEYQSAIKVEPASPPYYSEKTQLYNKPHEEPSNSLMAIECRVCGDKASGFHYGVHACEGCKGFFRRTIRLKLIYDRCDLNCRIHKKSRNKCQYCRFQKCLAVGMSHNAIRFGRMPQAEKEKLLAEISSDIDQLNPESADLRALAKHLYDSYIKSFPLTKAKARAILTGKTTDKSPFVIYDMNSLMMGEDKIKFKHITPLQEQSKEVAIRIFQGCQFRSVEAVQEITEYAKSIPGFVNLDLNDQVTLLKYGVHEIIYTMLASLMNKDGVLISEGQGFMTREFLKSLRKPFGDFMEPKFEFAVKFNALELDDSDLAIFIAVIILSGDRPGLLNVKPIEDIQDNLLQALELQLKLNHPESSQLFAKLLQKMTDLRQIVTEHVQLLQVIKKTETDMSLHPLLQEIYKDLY
Peroxisome proliferator-activated receptor gamma/Nuclear receptor coactivator 3, sequence (Q9Y6Q9 whole entry, further chain): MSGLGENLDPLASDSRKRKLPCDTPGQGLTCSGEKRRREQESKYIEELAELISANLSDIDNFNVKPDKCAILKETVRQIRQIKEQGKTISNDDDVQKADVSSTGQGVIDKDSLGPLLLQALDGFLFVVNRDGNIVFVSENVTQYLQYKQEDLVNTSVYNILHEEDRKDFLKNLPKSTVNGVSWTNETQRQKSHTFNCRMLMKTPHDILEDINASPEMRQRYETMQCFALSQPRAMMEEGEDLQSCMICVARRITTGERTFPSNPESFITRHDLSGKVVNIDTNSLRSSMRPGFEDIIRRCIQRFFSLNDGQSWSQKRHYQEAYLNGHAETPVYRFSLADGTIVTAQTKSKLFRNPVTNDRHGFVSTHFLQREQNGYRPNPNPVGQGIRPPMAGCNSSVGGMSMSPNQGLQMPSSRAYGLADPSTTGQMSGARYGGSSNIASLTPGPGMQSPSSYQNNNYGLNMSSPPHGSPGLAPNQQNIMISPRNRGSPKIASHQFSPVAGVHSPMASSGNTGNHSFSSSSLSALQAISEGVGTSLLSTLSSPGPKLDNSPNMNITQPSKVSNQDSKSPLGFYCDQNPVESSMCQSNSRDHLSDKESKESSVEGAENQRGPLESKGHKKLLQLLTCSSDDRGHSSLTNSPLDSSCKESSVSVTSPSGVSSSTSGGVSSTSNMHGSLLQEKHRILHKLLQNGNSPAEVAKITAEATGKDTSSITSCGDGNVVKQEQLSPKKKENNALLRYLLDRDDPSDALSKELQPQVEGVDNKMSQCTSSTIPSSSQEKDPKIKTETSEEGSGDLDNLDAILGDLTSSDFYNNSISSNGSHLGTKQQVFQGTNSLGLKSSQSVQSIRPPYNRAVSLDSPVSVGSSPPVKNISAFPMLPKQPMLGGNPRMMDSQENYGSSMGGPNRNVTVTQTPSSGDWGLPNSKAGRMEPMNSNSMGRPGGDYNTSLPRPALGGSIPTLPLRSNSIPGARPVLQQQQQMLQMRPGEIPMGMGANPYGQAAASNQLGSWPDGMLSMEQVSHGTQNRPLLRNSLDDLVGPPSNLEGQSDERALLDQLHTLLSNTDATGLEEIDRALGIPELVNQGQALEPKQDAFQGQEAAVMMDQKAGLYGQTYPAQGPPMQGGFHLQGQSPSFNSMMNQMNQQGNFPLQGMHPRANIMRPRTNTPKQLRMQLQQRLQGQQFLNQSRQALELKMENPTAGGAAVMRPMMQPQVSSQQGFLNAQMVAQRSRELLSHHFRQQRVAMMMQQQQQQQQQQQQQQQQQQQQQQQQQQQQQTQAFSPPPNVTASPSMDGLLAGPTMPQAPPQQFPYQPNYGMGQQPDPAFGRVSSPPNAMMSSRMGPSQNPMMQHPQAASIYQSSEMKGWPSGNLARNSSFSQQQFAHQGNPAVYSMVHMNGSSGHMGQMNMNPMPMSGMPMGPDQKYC
Peroxisome proliferator-activated receptor gamma/Nuclear receptor coactivator 1, sequence (P37231 whole entry): as the sequence (P37231 whole entry) above
Peroxisome proliferator-activated receptor gamma/Nuclear receptor coactivator 1, sequence (Q15788 whole entry, further chain): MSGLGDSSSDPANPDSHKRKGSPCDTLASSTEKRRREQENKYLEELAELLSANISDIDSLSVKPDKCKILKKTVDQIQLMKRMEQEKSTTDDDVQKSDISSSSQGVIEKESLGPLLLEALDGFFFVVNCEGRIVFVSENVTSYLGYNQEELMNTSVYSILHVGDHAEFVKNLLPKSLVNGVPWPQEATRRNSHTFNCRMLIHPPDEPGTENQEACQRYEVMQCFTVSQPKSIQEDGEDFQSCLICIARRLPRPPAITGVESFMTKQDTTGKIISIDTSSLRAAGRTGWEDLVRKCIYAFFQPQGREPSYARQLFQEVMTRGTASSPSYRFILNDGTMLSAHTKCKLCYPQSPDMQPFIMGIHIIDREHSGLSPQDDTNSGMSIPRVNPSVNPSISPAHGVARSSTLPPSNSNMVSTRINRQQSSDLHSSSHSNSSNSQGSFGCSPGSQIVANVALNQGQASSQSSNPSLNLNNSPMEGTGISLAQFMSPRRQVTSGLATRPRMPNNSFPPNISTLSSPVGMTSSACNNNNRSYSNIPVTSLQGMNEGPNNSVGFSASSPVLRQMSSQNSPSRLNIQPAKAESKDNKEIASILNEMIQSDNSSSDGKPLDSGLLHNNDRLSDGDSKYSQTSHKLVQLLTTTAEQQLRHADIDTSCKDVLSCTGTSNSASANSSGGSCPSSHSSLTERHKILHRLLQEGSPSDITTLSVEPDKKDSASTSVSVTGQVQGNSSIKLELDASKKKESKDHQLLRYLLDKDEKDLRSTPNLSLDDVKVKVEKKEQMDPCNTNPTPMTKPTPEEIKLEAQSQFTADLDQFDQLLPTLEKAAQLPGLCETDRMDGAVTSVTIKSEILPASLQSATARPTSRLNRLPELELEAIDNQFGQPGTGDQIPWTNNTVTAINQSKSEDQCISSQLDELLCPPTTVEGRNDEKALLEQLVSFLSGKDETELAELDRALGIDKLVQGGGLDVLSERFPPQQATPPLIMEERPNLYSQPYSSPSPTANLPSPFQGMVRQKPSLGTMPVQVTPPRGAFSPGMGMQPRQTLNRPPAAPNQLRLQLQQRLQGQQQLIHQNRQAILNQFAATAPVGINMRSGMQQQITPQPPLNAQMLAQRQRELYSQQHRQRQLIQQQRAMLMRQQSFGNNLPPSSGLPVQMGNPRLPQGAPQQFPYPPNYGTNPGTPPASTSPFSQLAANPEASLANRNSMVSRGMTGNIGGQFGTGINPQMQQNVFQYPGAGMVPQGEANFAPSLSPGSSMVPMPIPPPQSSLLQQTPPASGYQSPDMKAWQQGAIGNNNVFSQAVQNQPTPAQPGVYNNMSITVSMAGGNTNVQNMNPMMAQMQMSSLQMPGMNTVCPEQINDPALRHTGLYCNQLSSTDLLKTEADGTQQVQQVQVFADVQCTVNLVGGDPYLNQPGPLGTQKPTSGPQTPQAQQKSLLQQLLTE
Induced myeloid leukemia cell differentiation protein Mcl-1, sequence (Q07820 whole entry): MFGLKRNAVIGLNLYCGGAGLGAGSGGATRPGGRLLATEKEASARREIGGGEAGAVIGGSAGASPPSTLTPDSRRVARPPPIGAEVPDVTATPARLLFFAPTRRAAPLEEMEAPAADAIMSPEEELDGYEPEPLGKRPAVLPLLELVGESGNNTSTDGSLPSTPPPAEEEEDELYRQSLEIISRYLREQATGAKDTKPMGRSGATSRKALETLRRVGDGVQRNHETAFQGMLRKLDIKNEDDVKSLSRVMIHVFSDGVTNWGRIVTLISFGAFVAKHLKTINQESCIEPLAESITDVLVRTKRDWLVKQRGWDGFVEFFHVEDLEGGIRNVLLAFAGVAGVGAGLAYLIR

In the case of `Cc1ccc(NC(S)=NNc2ccc([N+](=O)[O-])cc2S(=O)(=O)Nc2ccccc2C(=O)O)cc1C`, the IC50 [1] is reported as 12.3 µM (active), the IC50 (Genome polyprotein) is reported as > 100 µM (active) and the IC50 (Leucine aminopeptidase) is reported as 5.16 µM (active). For the same compound, the IC50 (Aminopeptidase N) was 29.5 µM (active) and the IC50 [2] was 2.99 µM (active).
For `COc1ccccc1NC(=O)CSc1nc(O)cc(=O)[nH]1`, the IC50 (Leucine aminopeptidase) was 74.7 µM (active).
For `CC(C)CC1C(C#N)=C(N)Oc2[nH]nc(-c3ccccc3)c21` (centres undefined), the IC50 (Leucine aminopeptidase) was 33.7 µM (active), the AC50 [3] was 5.91 µM (active) and the EC50 (Protein RecA) was 2.13 µM (active).
For `c1ccc2nc3c(nc2c1)OCC1CCCCN31` (centres undefined), the EC50 (H4) was 0.161 µM (active), the EC50 [4] was 0.193 µM (active) and the EC50 [5] was 0.475 µM (active). The EC50 [6] was 1.45 µM (active), the EC50 [7] was > 12 µM (not active) and the EC50 [8] was 0.49 µM (active).
For `Cn1cnnc1SCC(=O)Nc1ccc2nc(SCc3ccccc3)sc2c1`, the EC50 [9] was > 50 µM (active).
In the case of `COc1c(OC)c(O)c2c(=O)cc(-c3c(O)cccc3O)oc2c1OC`, the EC50 [10] is reported as > 79.4 µM (not active), the EC50 [11] is reported as > 79.4 µM (not active) and the EC50 [12] is reported as > 79.4 µM (not active).
For `Cc1cc(OCC(=O)Nc2ccc3oc(-c4ccncc4)nc3c2)ccc1Cl`, the EC50 [10] was 25.3 µM (not active), the EC50 [11] was 24.8 µM (not active) and the EC50 [12] was 50.6 µM (not active).
With `Cn1nnc2cc(NC(=O)Nc3cccc(Cl)c3)ccc21` the EC50 (H4) was 0.109 µM (active), the EC50 [4] was 0.176 µM (active) and the EC50 [6] was 0.832 µM (active). For the same compound, the EC50 [7] was 0.413 µM (active) and the EC50 [8] was 0.553 µM (active).
For `Cc1cccc(NC(=O)CSc2nc3n[nH]cc3c(=O)[nH]2)c1`, the IC50 (Leucine aminopeptidase) was 3.88 µM (active).
For `Cc1ccc(N/N=C2/C(=N)N(c3ccccc3)NC2=O)cc1`, the EC50 (H4) was 10.6 µM (active), the EC50 [10] was > 79.4 µM (not active) and the EC50 [11] was > 79.4 µM (not active). For the same compound, the AC50 (Cytochrome P450 2C19) was 5.01 µM (inconclusive) and the EC50 [12] was > 79.4 µM (not active).
In the case of `CCN1CCN(C(=O)Nc2ccc(Cc3ccc(NC(=O)N4CCN(CC)CC4)cc3)cc2)CC1`, the EC50 [9] is reported as > 50 µM (active).
